These results are taken from article PMC7552917, “Systematic exploration of different E3 ubiquitin ligases: an approach towards potent and selective CDK6 degraders” (Chemical Science, 2020).

One data set deals with T1, CDK4 (Homo sapiens, UniProt P11802).
T1 construct: Percentage values are normalized to DMSO-treated MM.1S cells and the respective loading controls; endogenous in cells; host or cells: MM.1S (human multiple myeloma)
Kind of data set: CDK4 degradation, western blot of MM.1S cells. In kind it is cell-based. The following applies: MM1.S; 0.1 μM, 16 h, MM.1S cells, normalized to DMSO (100%); read-out: D CDK4: remaining CDK4 levels. The source says:
(§1) We determined the concentration of both kinases and CRBN, the latter in order to control the expression of the corresponding ligase. Since IMiDs, such as pomalidomide, cause the degradation of the lymphoid transcription factors Ikaros (IKZF1) and Aiolos (IKZF3) through the involvement of CRBN,[53],[54] this undesired effect was inspected. […] As further characteristics of CDK4/6d, the desired selectivity of CDK6 over CDK4 degradation and the unwanted influence on the IKZF1 concentration were determined. […] Next, we determined the concentration- and time-dependent activity of 11 (Fig. S2, ESI ^†).
(§2) Multiple myeloma, leukaemia, and murine cell lines:
(§3) After respective designated treatments, cells were washed with 1× PBS and lysed in IP lysis buffer (Pierce) containing HALT protease and phosphatase inhibitor cocktail (Thermo Scientific). Sodium dodecyl sulfate-polyacrylamide gel electrophoresis (SDS-PAGE) was performed with 5–20 µg of protein loaded per sample. Gel electrophoresis was carried out at a constant voltage. Proteins were transferred onto Immobilon-P transfer membranes (Millipore). Membranes were blocked with 5% milk in Tris Buffered Saline with 0.05% Tween 20 (TBS-T) followed by overnight incubation at 4 °C with shaking in primary antibodies diluted in 5% BSA in TBS-T. After incubation with respective secondary HRP-conjugated antibodies diluted in 5% milk in TBST, detection of proteins was performed using either WesternBright ECL HRP substrate or WesternBright Sirius HRP substrate (Advansta). Chemiluminescence was detected with ChemiDoc™ XRS+ System (Bio-Rad). For further detection of other proteins on the same membrane, membranes were subjected to incubation in Restore Western Blot Stripping Buffer, followed by re-blocking, and further probing of proteins was […]

A short description of data set [1]: elog D7.4 by chromatographic (HPLC) method. The format is physicochemical. The following applies: Polaris C18-A column, pH 7.4, read-out: elog D7.4 (experimental distribution coefficient at pH 7.4). As to the method:
Supplementary Information: Physical Chemistry
N. Molecular Descriptor Calculation […]
O. Physicochemical Measurements
The determination of the elog D7.4 values was performed by a chromatographic method according to […]
The column was a Polaris C18-A column (2 mm I.D., 50 mm length, 3 μm particle size) from Agilent Technologies. A linear mobile phase gradient was applied with […] TRIS buffer adjusted to pH 7.4 and MeCN. Therefore, the gradient was run from 5% […]
between the runs with a constant flow-rate of 0.8 ml/min and a temperature of 25 °C. The output wavelength of the detector was set to 269.5 nm. In order to calibrate the log D7.4 to the retention time, 6 different drugs with known log D7.4 were dissolved in DMSO and 10 µl were injected […]
Approximately 1 mg of the samples was dissolved in DMSO and 5 µl were injected. Analyses were conducted in duplicates. Subsequently, the mean retention times of the analytes were taken to calculate their log D7.4 values with aid of the calibration line.

Data set [2] addresses T2, CDK6 (Homo sapiens, UniProt Q00534).
T2 construct: Percentage values are normalized to DMSO-treated MM.1S cells and the respective loading controls; endogenous in cells; host or cells: MM.1S (human multiple myeloma)
The data set can be described thus: CDK6 degradation, western blot of MM.1S cells. The format is cell-based. The following applies: 16 h, MM.1S cells; for Selectivity ratio D CDK4/D CDK6 for the degradation of CDK6 over CDK4 / remaining activity at 0.1 µM: 0.1 μM.
Source text: as §1, §2, §3

In data set [3] the target is T3, CDK6 (Mus musculus, UniProt Q64261).
T3 construct: western blotting experiments with the murine myeloid 32D cell line and the murine pro-B-cell line Ba/F3; endogenous in cells; host or cells: 32D (murine myeloid) and Ba/F3 (murine pro-B)
T3 sequence (Q64261 whole entry): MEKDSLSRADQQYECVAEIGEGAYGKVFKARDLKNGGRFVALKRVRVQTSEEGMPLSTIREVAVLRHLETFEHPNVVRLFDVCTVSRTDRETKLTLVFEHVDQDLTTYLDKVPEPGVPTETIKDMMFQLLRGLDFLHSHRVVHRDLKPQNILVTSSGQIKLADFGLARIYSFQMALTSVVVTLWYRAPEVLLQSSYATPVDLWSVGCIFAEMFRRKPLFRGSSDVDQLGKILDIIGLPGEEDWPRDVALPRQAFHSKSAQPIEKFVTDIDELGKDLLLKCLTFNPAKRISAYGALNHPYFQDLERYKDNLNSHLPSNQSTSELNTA
The data set can be described thus: CDK6 degradation in murine cell lines 32D and Ba/F3, western blot. The format is cell-based. The conditions noted are these: 16 h.
Source text: When bound to IMiDs, human CRBN induces the recruitment of the neosubstrates IKZF1 and IKZF3 via a Val-388 interaction,[53],[55] leading to their subsequent proteasomal degradation. […] The previously reported BRD4 degrader dBET1 was capable of binding to murine CRBN and performed as an active PROTAC in murine cells.[57],[58] To test whether our CRBN-based degrader 11 maintains CDK6 degradation across different species, we performed western blotting experiments with the murine myeloid 32D cell line and the murine pro-B-cell line Ba/F3 (Fig. 2A). […] While the activity of BSJ-03-123 (8) was attenuated at this concentration, 11 mediated on-target effects at concentrations as low as 10 nM (Fig. 2B).
Fig. 2 CDK6 degradation by CRBN-based degrader 11 is conserved in murine cell lines. (A) Human cell lines MM.1S and murine cell lines 32D and Ba/F3 were treated with vehicle, pomalidomide (POM), CDK6-selective degrader BSJ-03-123 (8), negative control 21, or PROTAC 11 at 0.1 μM for 16 h; (B) CDK6-degradation is induced in a dose-dependent manner in murine cells. Murine cell lines 32D and Ba/F3 were treated with PROTAC 11 at indicated concentrations for 16 h.
as §2
After respective designated treatments, cells were washed with 1× PBS and lysed in IP lysis buffer (Pierce) containing HALT protease and phosphatase inhibitor cocktail (Thermo Scientific). Sodium dodecyl sulfate-polyacrylamide gel electrophoresis (SDS-PAGE) was performed with 5–20 µg of protein loaded per sample. Gel electrophoresis was carried out at a constant voltage. Proteins were transferred onto Immobilon-P transfer membranes (Millipore). Membranes were blocked with 5% milk in Tris Buffered Saline with 0.05% Tween 20 (TBS-T) followed by overnight incubation at 4 °C with shaking in primary antibodies diluted in 5% BSA in TBS-T. After incubation with respective secondary HRP-conjugated antibodies diluted in 5% milk in TBST, detection of proteins was performed using either WesternBright ECL HRP substrate or WesternBright Sirius HRP substrate (Advansta). Chemiluminescence was detected with ChemiDoc™ XRS+ System (Bio-Rad). For further detection of other proteins on the same membrane, membranes were subjected to incubation in Restore Western Blot Stripping Buffer, followed by re-blocking, and further probing of proteins was carried out. Quantification was performed using ImageJ (National Institutes of Health). […]
(A western blot detects proteins with antibodies after separation by electrophoresis.)

In a further data set the test system is MDA-MB-231 cells. The data set can be described thus: Cell viability assay (CellTiter-Glo), MDA-MB-231 breast cancer cells. The format is cell-based, human. The conditions noted are these: 96 h. Here is the method: Breast cancer cell lines:
To access the compound effect on cell viability, cells were plated in 384-well tissue culture-treated plates (Greiner Bio One). Twenty-four hours later, tested compounds were added into culture to the desired concentrations. Cell viability was measured by using CellTiter-Glo® Luminescent Cell Viability Assay (Promega) at day 4 or day 7 post-treatment and normalized by non-treated controls. […]
Dose response curves were modeled and plotted by using GraphPad Prism software (GraphPad Software). Statistical analysis was performed using GraphPad Prism software (GraphPad Software).
Variance of biological replicates is represented as the standard error of the mean (SEM) or as the […]
(In ATP-based viability assays light output follows the ATP content of the culture.)

The next data set has as its target T4, IKZF1 (Homo sapiens, UniProt Q13422+Q96SW2).
T4 construct: endogenous in cells; host or cells: MM.1S (human multiple myeloma)
Kind of data set: Neosubstrate IKZF1 degradation, western blot of MM.1S cells.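 Note: test concentration 0.1 µM.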 In kind it is cell-based. The conditions noted are these: MM1.S, 16 h, normalized to DMSO (100%), read-out: D IKZF1: remaining IKZF1 levels.
Source text: as §1, §2, §3

The mark [4] stands for this setting: MM1.S, normalized to DMSO (100%), read-out: D CDK6: remaining CDK6 levels.

Molecules are shown by their SMILES.

T2 sequence (Q00534 whole entry): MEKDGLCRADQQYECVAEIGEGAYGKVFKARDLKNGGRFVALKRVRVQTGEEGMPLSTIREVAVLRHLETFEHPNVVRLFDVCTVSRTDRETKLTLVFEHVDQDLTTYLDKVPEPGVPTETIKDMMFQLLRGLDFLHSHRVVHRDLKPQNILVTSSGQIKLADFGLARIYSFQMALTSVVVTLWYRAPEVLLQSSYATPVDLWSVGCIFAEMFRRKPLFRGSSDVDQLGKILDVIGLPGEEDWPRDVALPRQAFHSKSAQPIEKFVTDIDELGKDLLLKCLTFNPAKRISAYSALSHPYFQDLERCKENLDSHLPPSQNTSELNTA
T4 sequence (Q13422 whole entry): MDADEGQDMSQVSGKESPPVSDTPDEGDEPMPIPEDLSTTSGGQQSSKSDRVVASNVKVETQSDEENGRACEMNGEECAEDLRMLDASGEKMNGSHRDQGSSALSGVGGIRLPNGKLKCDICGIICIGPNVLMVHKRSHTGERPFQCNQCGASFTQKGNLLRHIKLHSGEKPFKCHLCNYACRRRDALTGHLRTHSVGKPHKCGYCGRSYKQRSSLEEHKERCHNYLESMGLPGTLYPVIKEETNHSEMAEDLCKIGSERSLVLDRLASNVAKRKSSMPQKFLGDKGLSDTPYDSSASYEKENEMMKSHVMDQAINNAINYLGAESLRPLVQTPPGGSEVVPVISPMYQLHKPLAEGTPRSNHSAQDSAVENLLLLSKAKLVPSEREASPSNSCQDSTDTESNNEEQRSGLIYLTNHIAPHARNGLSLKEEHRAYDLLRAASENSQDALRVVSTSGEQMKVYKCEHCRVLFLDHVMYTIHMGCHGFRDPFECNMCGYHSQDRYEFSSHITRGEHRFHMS
T4 sequence (Q96SW2 whole entry): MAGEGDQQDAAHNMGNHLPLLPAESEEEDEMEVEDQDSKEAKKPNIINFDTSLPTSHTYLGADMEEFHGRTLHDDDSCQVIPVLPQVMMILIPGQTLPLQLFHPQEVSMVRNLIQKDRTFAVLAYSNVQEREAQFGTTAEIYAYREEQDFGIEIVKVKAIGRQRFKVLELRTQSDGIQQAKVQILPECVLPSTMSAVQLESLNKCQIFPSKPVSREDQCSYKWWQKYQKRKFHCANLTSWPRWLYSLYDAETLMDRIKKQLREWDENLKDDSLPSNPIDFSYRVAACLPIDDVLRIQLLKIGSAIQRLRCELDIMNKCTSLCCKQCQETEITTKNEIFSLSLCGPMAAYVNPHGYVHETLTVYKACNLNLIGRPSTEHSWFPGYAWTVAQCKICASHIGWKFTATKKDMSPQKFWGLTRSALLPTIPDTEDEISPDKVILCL
T4 sequence (Q16531 whole entry partner): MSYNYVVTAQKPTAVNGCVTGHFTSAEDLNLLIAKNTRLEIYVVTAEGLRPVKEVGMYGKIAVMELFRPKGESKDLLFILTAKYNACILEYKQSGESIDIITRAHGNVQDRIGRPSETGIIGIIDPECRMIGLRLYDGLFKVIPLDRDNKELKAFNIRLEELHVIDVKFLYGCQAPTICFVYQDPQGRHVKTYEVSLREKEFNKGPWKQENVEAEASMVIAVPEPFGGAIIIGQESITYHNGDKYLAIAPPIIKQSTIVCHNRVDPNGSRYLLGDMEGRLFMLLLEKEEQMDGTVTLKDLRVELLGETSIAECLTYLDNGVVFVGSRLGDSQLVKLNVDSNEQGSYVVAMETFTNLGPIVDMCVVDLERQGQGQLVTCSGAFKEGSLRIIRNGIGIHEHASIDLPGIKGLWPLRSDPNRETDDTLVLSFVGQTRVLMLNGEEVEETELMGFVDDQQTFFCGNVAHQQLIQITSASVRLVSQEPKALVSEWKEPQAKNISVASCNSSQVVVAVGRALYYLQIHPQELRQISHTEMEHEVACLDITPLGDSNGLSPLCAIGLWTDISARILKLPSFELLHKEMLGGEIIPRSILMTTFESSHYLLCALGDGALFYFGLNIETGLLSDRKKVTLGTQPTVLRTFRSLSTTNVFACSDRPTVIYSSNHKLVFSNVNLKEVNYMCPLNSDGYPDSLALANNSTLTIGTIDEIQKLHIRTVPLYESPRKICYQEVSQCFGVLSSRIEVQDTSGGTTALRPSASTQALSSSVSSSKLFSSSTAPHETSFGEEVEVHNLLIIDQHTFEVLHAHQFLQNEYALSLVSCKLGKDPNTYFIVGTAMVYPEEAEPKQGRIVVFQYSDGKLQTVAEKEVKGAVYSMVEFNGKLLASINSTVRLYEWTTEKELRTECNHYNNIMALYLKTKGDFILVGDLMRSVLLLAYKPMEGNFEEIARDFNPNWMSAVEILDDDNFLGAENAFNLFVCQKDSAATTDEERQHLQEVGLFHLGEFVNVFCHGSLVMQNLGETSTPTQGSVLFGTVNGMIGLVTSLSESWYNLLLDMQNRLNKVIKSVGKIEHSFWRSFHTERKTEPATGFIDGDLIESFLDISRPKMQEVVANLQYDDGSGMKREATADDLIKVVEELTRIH
T1 sequence (P11802 whole entry): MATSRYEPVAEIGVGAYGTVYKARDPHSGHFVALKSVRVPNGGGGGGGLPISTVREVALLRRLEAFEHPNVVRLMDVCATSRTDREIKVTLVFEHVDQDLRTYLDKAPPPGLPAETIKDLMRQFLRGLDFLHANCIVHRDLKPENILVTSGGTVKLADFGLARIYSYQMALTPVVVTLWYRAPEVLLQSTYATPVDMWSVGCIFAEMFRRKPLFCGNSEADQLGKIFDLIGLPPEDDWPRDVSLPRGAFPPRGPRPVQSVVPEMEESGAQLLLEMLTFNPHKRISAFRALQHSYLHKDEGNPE

As for `CC(=O)c1c(C)c2cnc(Nc3ccc(N4CCN(CCCCCCCC(=O)N[C@H](C(=O)N5C[C@H](O)C[C@H]5C(=O)NCc5ccc(-c6scnc6C)cc5)C(C)(C)C)CC4)cn3)nc2n(C2CCCC2)c1=O` [compound 22], the remaining activity at 0.1 µM at CDK4 is 12%; at CDK6 [2] (setting [4]), 2.9%. The chromatographic logD in data set [1] amounted to 3.3. In addition, the “Selectivity ratio D CDK4/D CDK6 for the degradation of CDK6 over CDK4” value (shortened to “Selectivity ratio D CDK4/D CDK6”) on CDK6 [2] turned out to be 4.1. Further, the remaining activity at 1 µM at CDK6 [2] (MM1.S, 1 μM, normalized to DMSO (100%), read-out: D CDK6: remaining CDK6 levels) turned out to be 4.1%. The “CDK6 degradation in murine cells” value at CDK6 [3] (Ba/F3 and 32D cells, 1 μM) is “pronounced CDK6 degradation”.
On to `CC(=O)c1c(C)c2cnc(Nc3ccc(N4CCN(CCOCCOCCOc5cc(-c6scnc6C)ccc5CNC(=O)[C@@H]5C[C@H](O)CN5C(=O)[C@H](C(C)C)N5Cc6ccccc6C5=O)CC4)cn3)nc2n(C2CCCC2)c1=O` [compound 32], for which the remaining activity at 0.1 µM at CDK4 was 82%; at CDK6 [2] (setting [4]), above 95%. The “Inhibitory activity on cell viability relative to palbociclib” value in the data set on MDA-MB-231 cells is “inhibitory activity comparable to palbociclib”. Also, the chromatographic logD in data set [1] was found to be 3.
Turning to `CC(=O)c1c(C)c2cnc(Nc3ccc(N4CCN(C(=O)CCCCCNc5cccc6c5C(=O)N(C5CCC(=O)NC5=O)C6=O)CC4)cn3)nc2n(C2CCCC2)c1=O` (centres unmarked) [compound 11], the remaining activity at 0.1 µM on CDK4 was 25%; on IKZF1 it was 1%; on CDK6 [2] (setting [4]), 11%. For the same compound, the chromatographic logD in data set [1] was found to be 3.4. Moreover, the “Selectivity ratio D CDK4/D CDK6” value on CDK6 [2] amounted to 2.3. For the same compound, the “CDK6 degradation in murine cells” value on CDK6 [3] (32D and Ba/F3 cells, 0.1 μM) was “induced strong CDK6 degradation”. Further, on CDK6 [3] (32D and Ba/F3 cells), the “Lowest concentration mediating on-target effects (CDK6 degradation) in murine cells” value is given as 10 nM.
On to `CC(=O)c1c(C)c2cnc(Nc3ccc(N4CCN(C(=O)CCCCCNc5cccc6c5C(=O)N(C5CCC(=O)N(C)C5=O)C6=O)CC4)cn3)nc2n(C2CCCC2)c1=O` (centres unmarked) [compound 21], for which the remaining activity at 0.1 µM on CDK4 was 95%; on IKZF1, 93%; at CDK6 [2] (setting [4]), above 95%. In addition, in data set [1], the chromatographic logD was 3.6.
For `CC(=O)c1c(C)c2cnc(Nc3ccc(N4CCN(C(=O)CCCCCOCCOCCOCCOCCOCCOCCCCCCNc5cccc6c5C(=O)N(C5CCC(=O)NC5=O)C6=O)CC4)cn3)nc2n(C2CCCC2)c1=O` (centres unmarked) [compound 20], the remaining activity at 0.1 µM amounted to 86% on CDK4, 5.8% on IKZF1 and 16% on CDK6 [2] (setting [4]). For the same compound, in data set [1], the chromatographic logD came out at 3.7. The “Selectivity ratio D CDK4/D CDK6” value at CDK6 [2] is 5.4.
Regarding `CC(=O)c1c(C)c2cnc(Nc3ccc(N4CCN(C(=O)CCCCCOCCCCCCOCCCCCCNc5cccc6c5C(=O)N(C5CCC(=O)NC5=O)C6=O)CC4)cn3)nc2n(C2CCCC2)c1=O` (centres unmarked) [compound 17], the remaining activity at 0.1 µM came to 86% at CDK4, 18% at IKZF1 and 51% on CDK6 [2] (setting [4]). Moreover, the chromatographic logD in data set [1] was 5.2. Also, the “Selectivity ratio D CDK4/D CDK6” value on CDK6 [2] is listed as 1.7.
Take `CC(=O)c1c(C)c2cnc(Nc3ccc(N4CCN(C(=O)CCCCCOCCCCOCCCCOCCCCOCCCCCCNc5cccc6c5C(=O)N(C5CCC(=O)NC5=O)C6=O)CC4)cn3)nc2n(C2CCCC2)c1=O` (centres unmarked) [compound 19]: the remaining activity at 0.1 µM is above 95% at CDK4, 35% on IKZF1 and 51% at CDK6 [2] (setting [4]). Besides, in data set [1], the chromatographic logD came out at 5.4.
With `CC(=O)c1c(C)c2cnc(Nc3ccc(N4CCN(CCCCCCCC(=O)N[C@H](C(=O)N5C[C@@H](O)C[C@H]5C(=O)NCc5ccc(-c6scnc6C)cc5)C(C)(C)C)CC4)cn3)nc2n(C2CCCC2)c1=O` [compound 26], the remaining activity at 0.1 µM at CDK4 and on CDK6 [2] (setting [4]) was above 95% throughout. For the same compound, the “Inhibitory activity on cell viability relative to palbociclib” value in the data set with MDA-MB-231 cells is listed as “inhibitory activity comparable to palbociclib”. Also, in data set [1], the chromatographic logD was determined as 3.2.
In the case of `CC(=O)c1c(C)c2cnc(Nc3ccc(N4CCN(C(=O)CCC(=O)NCCCOCCCCOCCCNc5cccc6c5C(=O)N(C5CCC(=O)NC5=O)C6=O)CC4)cn3)nc2n(C2CCCC2)c1=O` (centres unmarked) [compound 15], the figures for the remaining activity at 0.1 µM on CDK4, on IKZF1 and at CDK6 [2] (setting [4]) were 91%, 56% and 65%, respectively. Besides, the chromatographic logD in data set [1] was determined as 3.1. For the same compound, at CDK6 [2], the “Selectivity ratio D CDK4/D CDK6” value turned out to be 1.4.
